This assay has as its target T1, human CRF receptors (Homo sapiens, UniProt P34998).
T1 construct: expressed in transfected cells; a membrane suspension of the stably transfected cells was used
T1 sequence (P34998 24-415): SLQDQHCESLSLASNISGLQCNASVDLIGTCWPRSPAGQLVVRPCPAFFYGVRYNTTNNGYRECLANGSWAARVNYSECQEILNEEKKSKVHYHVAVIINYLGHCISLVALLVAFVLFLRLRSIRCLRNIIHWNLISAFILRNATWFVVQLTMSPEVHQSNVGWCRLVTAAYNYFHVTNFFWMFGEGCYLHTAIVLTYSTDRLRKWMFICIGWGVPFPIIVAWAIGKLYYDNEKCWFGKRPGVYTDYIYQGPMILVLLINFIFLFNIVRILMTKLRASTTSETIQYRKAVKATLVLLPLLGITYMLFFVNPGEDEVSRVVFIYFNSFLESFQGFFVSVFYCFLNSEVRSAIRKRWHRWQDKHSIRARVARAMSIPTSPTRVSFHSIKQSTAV
In words: CRF receptor radioligand binding assay ([125I] tyrosine-ovine CRF displacement). As to conditions: compounds found to show the best score in this test. How it is done: Compounds were evaluated for binding activity to the CRF receptor by a standard radioligand binding assay as generally described by DeSouza et al. (J. Neutrosci. 7:88-100, 1987). By utilizing various radiolabeled CRF ligands, the assay may be used to evaluate the binding activity of the compounds of the present invention with any CRF receptor subtype. Briefly, the binding assay involves the displacement of a radiolabeled CRF ligand from the CRF receptor. More specifically, the binding assay was performed in 1.5 ml Eppendorf tubes using approximately 1×10^6 cells per tube stably transfected with human CRF receptors. Each tube received about 0.1 ml of assay buffer (e.g., Dulbecco's phosphate buffered saline, 10 mM magnesium chloride, 20 μM bacitracin) with or without unlabeled sauvagine, urotensin I or CRF (final concentration, 1 μM) to determine nonspecific binding, 0.1 ml of [^125I] tyrosine-ovine CRF (final concentration ˜200 pM or approximately the KD as determined by Scatchard analysis) and 0.1 ml of a membrane suspension of cells containing the CRF receptor. […] Following two washes of the pellets, the tubes were cut just above the pellet and monitored in a gamma counter for radioactivity at approximately 80% efficiency. All radioligand binding data were analyzed using a non-linear least-square curve-fitting program. […]

As to `CCCN(CCC)c1nc(C)nc2c(-c3c(C)cc(C)cc3C)csc12` [Compound 1, 2-methyl-6-(N,N-dipropylamino)-8-(2,4,6-trimethylphenyl)-thiopheno[3,2-d]pyrimidine], the “score in the CRF receptor binding test” value is reported as “best score”.

The values above are taken from US6469166B2, “Thiophenopyrimidines” (Neurocrine Biosciences, Inc., priority 1996, dated 2002).
